Experimental data from patent US20240269145A1, “USE OF INDOLE COMPOUND AS INHIBITORS OF FERROPTOSIS” (MITOIMMUNE THERAPEUTICS INC., priority 2023, published 2024).

Tests used:
Format in all cases: cell-based
PC-12 cells [1] = assay: Cytosolic iron ion accumulation (FerroOrange, images) after RSL3; details: PC-12, 0.3 μM RSL3, 1 hour; Example Compound 1 1 μM, DFO 10 or 100 μM
Protocol: (§1) To confirm the inhibitory effect against cytosolic iron ion accumulation in adrenal medulla cells and cardiac cells, 3×10^5 PC-12 cells and H9C2 cells were each dispensed into a 35 mm confocal dish and cultured for 18 to 36 hours. Each well was treated with the Example Compound 1, which was diluted so that the final concentration became 1 μM, and with DFO, which was diluted so that the final concentration became 10 µM and 100 μM, and culture was performed for 20 to 30 minutes. Afterwards, the PC-12 cells and H9C2 cells were each treated with RSL3 and erastin so that their final concentration became 0.3 µM and 1 μM, respectively, and cultured for 1 hour and 7 hours. To confirm the inhibitory effect against cytosolic iron ion accumulation, FerroOrange [DOJINDO; F374] was used. According to the manufacturer's experimental method, FerroOrange was diluted in the cell culture medium so that the final concentration became 1 μM, and the cells were treated therewith. […] The cells fluorescently stained with FerroOrange were observed using a fluorescence microscope [Carl Zeiss; Axio Observer 7] to investigate the change in fluorescence (excitation/absorption 580 nm/543 nm) compared to the control group (RSL3 and erastin untreated group).

ARPE-19 cells = assay: Cytosolic lipid ROS after RSL3, Experimental Example 3-5; details: ARPE-19, RSL3 0.3 μM, 2 hr
Protocol: [The source words this procedure for another cell line and says it was used here with some conditions changed.] (§2) Experimental Example 3-1: To confirm the protective effect against cytosolic lipid reactive oxygen species in lung epithelial cells, 2×10^5 MLE-12 cells were dispensed into each well of a 12-well plate and cultured for 18 to 24 hours. Each well was treated with Example Compound 1 and ferrostatin-1, which were diluted so that their final concentration became 0.01, 0.1, 1, and 10 μM, and culture was performed for 15 minutes. Afterwards, the cells were treated so that the final concentration of RSL3 became 1 μM, and cultured for 2 hours. To confirm the inhibitory effect against cytosolic lipid reactive oxygen species, BODIPY™ 581/591 C11 (lipid peroxidation sensor) [Invitrogen™; D3861] was used. According to the manufacturer's experimental method, BODIPY™ 581/591 C11 was diluted in the cell culture medium so that the final concentration became 5 μM, and the cells were treated therewith and allowed to react for 30 minutes to perform fluorescent staining. The MLE-12 cells fluorescently stained with BODIPY™ 581/591 C11 were detached from the 12-well plate using 0.25% Trypsin-EDTA and transferred to a microtube, and the fluorescence (excitation/absorption 500 to 650 nm/510 to 665 nm) was measured using BD FACSLyric™ to calculate the rate of change compared to the control group. […]

H9C2 cells [2] = assay: Cytosolic iron ion accumulation (FerroOrange, images) after erastin; details: H9C2, erastin 1 μM, 7 hours; Example Compound 1 1 μM, DFO 10 or 100 μM
Protocol: as §1

H9C2 cells [3] = assay: Mitochondrial iron ion accumulation (Mito-FerroGreen, images) after erastin; details: H9C2, erastin 5 μM, 5 hr; Example Compound 1 1 μM, DFO 100 μM
Protocol: [The source words this procedure for another cell line and says it was used here with some conditions changed.] Experimental Example 9-1: To confirm the inhibitory effect against mitochondrial iron ion accumulation in lung epithelial cells and adrenal medulla cells, 3×10^5 MLE-12 cells and PC-12 cells were each dispensed into a confocal dish and cultured for 18 to 24 hours. Each well was treated with Example Compound 1 and DFO, which were diluted so that their final concentration became 1 μM and 10 μM, respectively, and culture was performed for 20 minutes. Afterwards, the MLE-12 cells were treated with RSL3 so that the final concentration became 1 μM, and cultured for 1 hour and 30 minutes, and the PC-12 cells were treated with RSL3 so that the final concentration became 0.3 μM, and cultured for 30 minutes. To confirm the inhibitory effect against mitochondrial iron ion accumulation, Mito-FerroGreen [DOJINDO; M489] was used. According to the manufacturer's experimental method, Mito-FerroGreen was diluted in the cell culture medium so that the final concentration became 1 μM, and the cells were treated therewith and allowed to react for 30 minutes to perform fluorescent staining. The cells fluorescently stained with Mito-FerroGreen were observed using a fluorescence microscope [Carl Zeiss; Axio Observer 7] to investigate the change in fluorescence (excitation/absorption 450 to 490 nm/500 to 550 nm) compared to the control group (RSL3 untreated group). […]

PC-12 cells [4] = assay: Cytosolic lipid ROS after RSL3, Experimental Example 3-4; details: PC-12, RSL3 0.3 μM, 1 hr
Protocol: [The source words this procedure for another cell line and says it was used here with some conditions changed.] as §2

MLE-12 cells = assay: Mitochondrial iron ion accumulation (Mito-FerroGreen, images) after RSL3; details: MLE-12, RSL3 1 μM, 1 hour 30 minutes; Example Compound 1 1 μM, DFO 10 μM
Protocol: (§3) Experimental Example 9-1: To confirm the inhibitory effect against mitochondrial iron ion accumulation in lung epithelial cells and adrenal medulla cells, 3×10^5 MLE-12 cells and PC-12 cells were each dispensed into a confocal dish and cultured for 18 to 24 hours. Each well was treated with Example Compound 1 and DFO, which were diluted so that their final concentration became 1 μM and 10 μM, respectively, and culture was performed for 20 minutes. Afterwards, the MLE-12 cells were treated with RSL3 so that the final concentration became 1 μM, and cultured for 1 hour and 30 minutes, and the PC-12 cells were treated with RSL3 so that the final concentration became 0.3 μM, and cultured for 30 minutes. To confirm the inhibitory effect against mitochondrial iron ion accumulation, Mito-FerroGreen [DOJINDO; M489] was used. According to the manufacturer's experimental method, Mito-FerroGreen was diluted in the cell culture medium so that the final concentration became 1 μM, and the cells were treated therewith and allowed to react for 30 minutes to perform fluorescent staining. The cells fluorescently stained with Mito-FerroGreen were observed using a fluorescence microscope [Carl Zeiss; Axio Observer 7] to investigate the change in fluorescence (excitation/absorption 450 to 490 nm/500 to 550 nm) compared to the control group (RSL3 untreated group).

PC-12 cells [5] = assay: as above; details: PC-12, RSL3 0.3 μM, 30 minutes; Example Compound 1 1 μM, DFO 10 μM
Protocol: as §3

HT-22 cells = assay: Cytosolic lipid ROS after erastin, Experimental Example 3-2; details: HT-22, erastin 1 μM, compound at 10 μM
Protocol: [The source words this procedure for another cell line and says it was used here with some conditions changed.] as §2

O=S1(=O)CCN(Cc2cc(NC3CCOCC3)c3[nH]c(-c4ccccc4)cc3c2)CC1 [Example 1, 5-[(1,1-dioxido-4-thiomorpholinyl)methyl]-2-phenyl-N-(tetrahydro-2H-pyran-4-yl)-1H-indole-7-amine]
cytosolic iron ion accumulation (images) (PC-12 cells [1]): decrease was confirmed | concentration at which lipid reactive oxygen species are inhibited (ARPE-19 cells): 0.01 µM | cytosolic iron ion accumulation (images) (H9C2 cells [2]): decrease was confirmed | mitochondrial iron ion accumulation (images) (H9C2 cells [3]): inhibited | concentration at which cytosolic lipid reactive oxygen species were significantly decreased (PC-12 cells [4]): 0.1 µM | mitochondrial iron ion accumulation (images) (MLE-12 cells): decrease was confirmed | mitochondrial iron ion accumulation (images) (PC-12 cells [5]): decrease was confirmed | cytosolic lipid reactive oxygen species increased by erastin (HT-22 cells): inhibited | cytosolic lipid reactive oxygen species increased by erastin (HT-22 cells; 4 hours and 8 hours after treatment): effectively inhibited
